Measured values: patent US11591316B2, “Compounds, compositions, and methods” (DENALI THERAPEUTICS INC., priority 2016, dated 2023)

Assay: Metabolic stability in human liver microsomes
Format: in vitro ADME
Settings: 1 μM compound, 0.5 mg/mL protein, projected hepatic clearance (well-stirred model), Table 5
Procedure: Metabolic stability of compounds was evaluated in human liver microsomes (from Corning or XenoTech, LLC) using a 96-well plate assay format. Compounds were incubated at 37° C. at 1 μM final concentration in the microsomal matrix (0.5 mg/mL total protein) in the presence or absence of NADPH cofactor. An NADPH regenerating system, comprised of NADP, MgCl2, isocitric acid, and isocitrate dehydrogenase, was used in the assay. Enzymatic reactions were conducted for 0, 5, 10, 20, 30, or 60 min before termination by addition of acetonitrile containing tolbutamide and labetalol internal standards (100 ng/mL). After shaking for 10 min, plates were subjected to centrifugation (4000 rpm at 4° C.) for 20 min and supernatants were mixed 1:3 with HPLC grade water. Samples were analyzed by LC-MS/MS using appropriate MRM transitions for each analyte and internal standard (IS). Analyte/IS peak area ratios were used to determine percent compound remaining at each time point. Intrinsic clearance (Clint; expressed as mL·min^−1·mg^−1) was calculated from the first order elimination constant (k, min^−1) of test article decay and the volume of the incubation. These values were scaled to intrinsic organ clearance (Clint) using human specific scaling factors (48.8 mg microsomal protein per g liver; 25.7 g liver per kg body weight). […]

Human liver microsomes CLhep [mL/min/kg]	SMILES
0.75	[2H]C([2H])([2H])n1nc(C(C)(C)n2nccn2)cc1Nc1ncc(C(F)(F)F)c(NCC)n1 [Compound 34, N4-Ethyl-N2-[1-(^2H3)methyl-3-[2-(2H-1,2,3-triazol-2-yl)propan-2-yl]-1H-pyrazol-5-yl]-5-(trifluoromethyl)pyrimidine-2,4-diamine]
0	CNc1nc(Nc2cn(C(C)(C)c3ncn(C)n3)nc2C)ncc1C(F)(F)F [Compound 218]
